Test results as given in ChEMBL document CHEMBL1127434, “Discovery of nanomolar ligands for 7-transmembrane G-protein-coupled receptors from a diverse N-(substituted)glycine peptoid library” (J Med Chem, 1994).
Values belong to the compound of their own block, whether it stands above or below them.

Legend:
Mu-type opioid receptor = Mu-type opioid receptor (Rattus norvegicus, UniProt P33535); test: Compound was evaluated for binding affinity towards mu-specific opiate receptor from rat brain membrane using [3H]DAMGO
[1] = molecular target: T1, Adrenergic receptor alpha-1 (Rattus norvegicus, UniProt P15823+P23944+P43140); test: Compound was evaluated for its binding affinity against alfa1 adrenergic receptors.; assay type: protein assay
T1 sequence (P15823 whole entry): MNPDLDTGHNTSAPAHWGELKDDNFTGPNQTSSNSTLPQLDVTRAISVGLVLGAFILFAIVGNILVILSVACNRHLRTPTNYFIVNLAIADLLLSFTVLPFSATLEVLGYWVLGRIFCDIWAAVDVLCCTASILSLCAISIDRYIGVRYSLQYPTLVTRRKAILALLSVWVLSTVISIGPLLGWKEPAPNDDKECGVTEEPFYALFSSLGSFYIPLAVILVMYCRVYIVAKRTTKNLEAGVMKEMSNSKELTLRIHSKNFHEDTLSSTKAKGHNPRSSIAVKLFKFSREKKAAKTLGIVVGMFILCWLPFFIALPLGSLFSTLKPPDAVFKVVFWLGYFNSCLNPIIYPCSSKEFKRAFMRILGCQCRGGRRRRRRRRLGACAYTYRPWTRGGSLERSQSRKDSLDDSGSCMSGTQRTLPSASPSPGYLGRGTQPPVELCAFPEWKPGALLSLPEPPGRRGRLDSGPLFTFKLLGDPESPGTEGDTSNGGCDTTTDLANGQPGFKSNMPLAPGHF
T1 sequence (P23944 whole entry): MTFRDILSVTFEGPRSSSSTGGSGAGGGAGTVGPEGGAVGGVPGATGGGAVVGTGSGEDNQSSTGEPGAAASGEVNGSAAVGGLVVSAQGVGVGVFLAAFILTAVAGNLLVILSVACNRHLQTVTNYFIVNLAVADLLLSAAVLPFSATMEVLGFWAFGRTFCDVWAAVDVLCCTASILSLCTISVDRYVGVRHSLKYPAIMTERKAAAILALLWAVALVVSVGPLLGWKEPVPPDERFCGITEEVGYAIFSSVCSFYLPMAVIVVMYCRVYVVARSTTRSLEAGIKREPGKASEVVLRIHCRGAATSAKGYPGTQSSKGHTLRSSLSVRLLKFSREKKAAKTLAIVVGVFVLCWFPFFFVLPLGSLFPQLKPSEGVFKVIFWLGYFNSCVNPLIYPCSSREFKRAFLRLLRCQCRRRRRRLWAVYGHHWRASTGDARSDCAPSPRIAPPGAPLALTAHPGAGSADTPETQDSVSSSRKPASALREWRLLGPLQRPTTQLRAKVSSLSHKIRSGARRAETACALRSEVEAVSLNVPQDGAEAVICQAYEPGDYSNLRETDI
T1 sequence (P43140 whole entry): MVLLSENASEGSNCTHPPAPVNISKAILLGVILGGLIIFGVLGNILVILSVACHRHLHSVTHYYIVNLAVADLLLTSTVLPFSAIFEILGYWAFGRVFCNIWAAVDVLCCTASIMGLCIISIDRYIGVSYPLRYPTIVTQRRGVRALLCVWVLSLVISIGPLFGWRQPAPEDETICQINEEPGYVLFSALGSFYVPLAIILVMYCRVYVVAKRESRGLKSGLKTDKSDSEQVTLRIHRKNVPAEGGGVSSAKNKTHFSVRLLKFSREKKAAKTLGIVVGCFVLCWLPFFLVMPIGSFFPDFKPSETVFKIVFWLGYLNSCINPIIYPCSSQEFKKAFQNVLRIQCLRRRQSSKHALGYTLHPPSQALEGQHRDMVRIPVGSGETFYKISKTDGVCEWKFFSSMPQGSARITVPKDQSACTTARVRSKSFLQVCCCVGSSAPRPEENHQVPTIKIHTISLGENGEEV

[2] = molecular target: T1, Adrenergic receptor alpha-1
Description: Compound was evaluated for binding affinity towards alpha-1 adrenergic receptors from combinatorial peptoid library

[3] = molecular target: T1, Adrenergic receptor alpha-1; test: Compound was evaluated for its binding affinity against alpha-1 adrenergic receptors; assay type: protein assay

Chain of Mu-type opioid receptor (P33535 whole entry): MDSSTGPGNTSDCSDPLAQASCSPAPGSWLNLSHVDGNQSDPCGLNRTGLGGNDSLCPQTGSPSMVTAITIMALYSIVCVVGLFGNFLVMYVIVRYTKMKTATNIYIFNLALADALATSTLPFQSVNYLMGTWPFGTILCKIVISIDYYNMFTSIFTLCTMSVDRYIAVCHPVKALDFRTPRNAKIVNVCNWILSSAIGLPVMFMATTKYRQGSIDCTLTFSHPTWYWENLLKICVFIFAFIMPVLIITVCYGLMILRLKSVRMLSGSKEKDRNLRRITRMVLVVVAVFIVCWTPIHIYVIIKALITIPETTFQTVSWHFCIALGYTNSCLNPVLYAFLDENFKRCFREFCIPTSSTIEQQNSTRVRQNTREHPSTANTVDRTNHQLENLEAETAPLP

Ki [1]: 5 nM
Structure (SMILES): NC(=O)CN(CCc1ccccc1)C(=O)CN(C(=O)CNCCc1ccc(O)cc1)c1ccc(-c2ccccc2)cc1

Ki [3]: 140 nM
Structure (SMILES): NC(=O)CN(CCc1ccccc1)C(=O)CN(C(=O)CNCCc1ccc(O)cc1)c1ccc(Oc2ccccc2)cc1

The remaining lines, values behind:

Structure (SMILES): COc1ccc(CN(CC(=O)N(CCc2ccc(O)cc2)CC(N)=O)C(=O)CNCC(c2ccccc2)c2ccccc2)cc1OC
Ki (Mu-type opioid receptor): 31 nM

Structure (SMILES): CCCCCN(CC(=O)N(CCc1ccc(O)cc1)CC(N)=O)C(=O)CNCC(c1ccccc1)c1ccccc1
Ki (Mu-type opioid receptor): 46 nM

Structure (SMILES): NC(=O)CN(CCc1ccc(O)cc1)C(=O)CN(Cc1ccc2c(c1)OCO2)C(=O)CNCC(c1ccccc1)c1ccccc1
Ki (Mu-type opioid receptor): 6 nM

Structure (SMILES): NC(=O)CN(CCc1ccccc1)C(=O)CN(C(=O)CNCCc1ccccc1)c1ccc(-c2ccccc2)cc1
Ki [2]: 4 nM

Structure (SMILES): NC(=O)CN(C(=O)CN(C(=O)CNCCc1ccc(O)cc1)c1ccc(-c2ccccc2)cc1)c1ccc(-c2ccccc2)cc1
Ki [3]: 310 nM
